Holding throughout (assay type): biochemical
One assay has as its system β-Glucosidase. The assay is described as follows: inhibition of human liver β-glucosidase. The conditions noted are these: 1 mM inhibitor. The protocol:
(§1) Human liver glycosidases were assayed in the absence and presence [1 mM] of each of the potential inhibitors, using the appropriate buffered 4-methylumbelliferyl glycosides as substrates, as previously described.^17 See Table I, below.

The next assay addresses T1, β-Glucuronidase (Homo sapiens, UniProt P08236).
T1 construct: Human liver glycosidases were assayed; from tissue; host or cells: human liver
T1 sequence (P08236 23-633 limits assumed): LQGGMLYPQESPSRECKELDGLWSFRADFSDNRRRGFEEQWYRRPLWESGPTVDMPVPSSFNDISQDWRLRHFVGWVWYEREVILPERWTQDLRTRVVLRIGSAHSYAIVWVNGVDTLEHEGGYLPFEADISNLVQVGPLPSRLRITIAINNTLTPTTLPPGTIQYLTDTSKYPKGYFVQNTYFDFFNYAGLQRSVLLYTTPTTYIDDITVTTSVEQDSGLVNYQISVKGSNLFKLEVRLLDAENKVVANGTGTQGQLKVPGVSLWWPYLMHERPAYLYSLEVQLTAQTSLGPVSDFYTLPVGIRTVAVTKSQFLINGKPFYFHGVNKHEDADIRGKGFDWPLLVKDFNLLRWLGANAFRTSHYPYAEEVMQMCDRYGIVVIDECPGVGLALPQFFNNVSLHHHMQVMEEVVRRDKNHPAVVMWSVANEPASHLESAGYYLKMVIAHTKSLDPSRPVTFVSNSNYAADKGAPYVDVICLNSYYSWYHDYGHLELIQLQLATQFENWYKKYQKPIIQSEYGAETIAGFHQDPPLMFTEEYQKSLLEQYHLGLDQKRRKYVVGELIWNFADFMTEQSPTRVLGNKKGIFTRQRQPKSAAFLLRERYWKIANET
Nature of the assay: inhibition of human liver β-glucuronidase. The conditions noted are these: read-out: % Inhibition of Glycosidase Activity, β-Glucuronidase. The protocol:
as §1

In the next assay the target is T2, β-Galactosidase (Homo sapiens, UniProt P16278).
T2 construct: Human liver glycosidases were assayed; from tissue; host or cells: human liver
T2 sequence (P16278 29-677): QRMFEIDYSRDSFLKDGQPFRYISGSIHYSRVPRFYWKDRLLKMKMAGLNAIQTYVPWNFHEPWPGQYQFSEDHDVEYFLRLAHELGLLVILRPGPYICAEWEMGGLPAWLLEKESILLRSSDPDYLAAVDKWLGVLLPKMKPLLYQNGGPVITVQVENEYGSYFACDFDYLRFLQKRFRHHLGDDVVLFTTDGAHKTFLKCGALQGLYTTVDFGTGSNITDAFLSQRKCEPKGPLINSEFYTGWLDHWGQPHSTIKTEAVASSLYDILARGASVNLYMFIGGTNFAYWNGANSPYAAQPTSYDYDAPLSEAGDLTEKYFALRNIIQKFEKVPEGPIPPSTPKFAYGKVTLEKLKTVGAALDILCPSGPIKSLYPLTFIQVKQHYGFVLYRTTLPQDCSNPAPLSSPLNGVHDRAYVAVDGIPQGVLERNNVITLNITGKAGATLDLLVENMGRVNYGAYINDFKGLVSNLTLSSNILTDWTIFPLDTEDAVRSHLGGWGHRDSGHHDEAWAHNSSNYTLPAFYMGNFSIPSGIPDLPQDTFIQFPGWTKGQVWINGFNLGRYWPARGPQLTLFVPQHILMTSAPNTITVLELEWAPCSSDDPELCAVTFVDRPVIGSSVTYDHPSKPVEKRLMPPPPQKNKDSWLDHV
Nature of the assay: inhibition of human liver β-galactosidase. To be noted: 1 mM inhibitor; read-out: % Inhibition of Glycosidase Activity, β-Galactosidase. The protocol: as §1

The test system of a further assay is α-mannosidases. The assay is described as follows: inhibition of human liver α-mannosidases (multiple forms taken together). To be noted: for inhibition of α-mannosidases (in words): 1 mM. The procedure: as §1
The test system of a further assay is α-Arabinosidase. Nature of the assay: inhibition of human liver α-arabinosidase. The conditions noted are these: 1 mM inhibitor. The procedure: as §1
Another assay has as its target T3, β-Mannosidase (Homo sapiens, UniProt O00462).
T3 construct: Human liver glycosidases were assayed; from tissue; host or cells: human liver
T3 sequence (O00462 18-879): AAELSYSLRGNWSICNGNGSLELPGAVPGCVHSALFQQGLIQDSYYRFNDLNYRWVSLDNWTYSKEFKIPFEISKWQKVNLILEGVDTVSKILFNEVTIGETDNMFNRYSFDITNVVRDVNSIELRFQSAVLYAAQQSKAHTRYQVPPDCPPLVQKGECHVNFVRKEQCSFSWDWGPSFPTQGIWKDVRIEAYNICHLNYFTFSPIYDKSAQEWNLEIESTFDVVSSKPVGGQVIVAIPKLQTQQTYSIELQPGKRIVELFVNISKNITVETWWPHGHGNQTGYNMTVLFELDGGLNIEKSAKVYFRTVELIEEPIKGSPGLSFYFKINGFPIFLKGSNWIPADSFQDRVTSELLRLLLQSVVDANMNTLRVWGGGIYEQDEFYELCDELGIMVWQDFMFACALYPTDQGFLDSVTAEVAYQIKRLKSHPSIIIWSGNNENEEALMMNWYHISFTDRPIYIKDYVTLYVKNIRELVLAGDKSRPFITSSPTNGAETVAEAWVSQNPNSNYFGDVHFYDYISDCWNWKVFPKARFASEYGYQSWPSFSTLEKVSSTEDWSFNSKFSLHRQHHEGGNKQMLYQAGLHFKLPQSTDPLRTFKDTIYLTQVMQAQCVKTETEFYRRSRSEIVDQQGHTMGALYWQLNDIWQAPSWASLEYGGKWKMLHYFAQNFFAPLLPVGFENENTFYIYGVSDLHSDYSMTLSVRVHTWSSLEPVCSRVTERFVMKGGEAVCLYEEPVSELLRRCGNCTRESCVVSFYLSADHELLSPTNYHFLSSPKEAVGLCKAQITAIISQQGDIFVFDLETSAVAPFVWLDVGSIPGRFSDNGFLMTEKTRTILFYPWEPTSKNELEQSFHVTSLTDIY
Nature of the assay: inhibition of human liver β-mannosidase. The conditions noted are these: read-out: % Inhibition of Glycosidase Activity, β-Mannosidase. The procedure:
as §1

The term inhibition denotes the relative decrease from the control value, in per cent.

Where two headings read alike, the source gives them in different places.

On to `NC[C@H]1O[C@H]([C@H](O)CO)[C@H](O)[C@@H]1O` [Manhepamine (5), 1-amino-2,5-anhydro-1-deoxy-D-glycero-D-talo-heptitol], for which the “% Inhibition of Glycosidase Activity, β-Glucosidase” value (“% Inhibition … β-Glucosidase” below) with β-Glucosidase came to 14%. Moreover, the inhibition at 1000 µM on β-Glucuronidase (1 mM inhibitor) turned out to be 7%; on β-Galactosidase, 0%; at β-Mannosidase (1 mM inhibitor) it was 3%. The entries for the “inhibition of α-mannosidases (in words)” value in the assay with α-mannosidases and with α-mannosidases (listed as α-(aminomethyl)-1-deoxy-mannofuranose (5)) were “did not inhibit any of the α-mannosidases” and “relatively inactive against α-mannosidases”, respectively. For the same compound, in the assay with α-Arabinosidase, the “% Inhibition of Glycosidase Activity, α-Arabinosidase” value (from here on “% Inhibition … α-Arabinosidase”) is given as 0%.
Regarding `OC[C@@H](O)[C@H]1N[C@H](CO)[C@@H](O)[C@H]1O` [αHomoDIM (4), 2,5-dideoxy-2,5-imino-D-glycero-D-talo-heptitol], the “% Inhibition … β-Glucosidase” value in the assay on β-Glucosidase came to 23%. The inhibition at 1000 µM on β-Glucuronidase (1 mM inhibitor) is 0%; at β-Galactosidase it was 35%; at β-Mannosidase (1 mM inhibitor) it was 18%. Further, the “inhibition of α-mannosidases (in words)” value in the assay with α-mannosidases is “still retaining significant inhibitory properties towards α-mannosidases”. In addition, in the assay on α-mannosidases (compared with DMJ (1)), the “inhibitory activity against α-mannosidase relative to DMJ” value was “about twice as effective as DMJ”. Also, the “% Inhibition … α-Arabinosidase” value in the assay with α-Arabinosidase was 25%.
For the compound `OC[C@H]1N[C@H](CO)[C@@H](O)C(O)[C@@H]1O` (stereo partly shown) [αHomoDMJ (2)], the “% Inhibition … β-Glucosidase” value in the assay with β-Glucosidase was found to be 0%. Besides, the inhibition at 1000 µM at β-Glucuronidase (1 mM inhibitor), on β-Galactosidase and at β-Mannosidase (1 mM inhibitor) was 0% in each case. Further, the “inhibition of α-mannosidases (in words)” value in the assay on α-mannosidases was “does not affect appreciably the inhibition of the multiple forms of α-mannosidase”. Besides, in the assay with α-mannosidases (compared with parent compound DMJ (1)), the “selectivity for α-mannosidases (in words)” value is “much more selective inhibitor of α-mannosidases than is the parent compound DMJ (1)”. Also, in the assay on α-Arabinosidase, the “% Inhibition … α-Arabinosidase” value came to 0%.
Consider `OC[C@@H](O)[C@H]1NC[C@@H](O)[C@H]1O` [DIM (3)], for which the “% Inhibition … β-Glucosidase” value in the assay on β-Glucosidase was 16%. Besides, the inhibition at 1000 µM came to 9% on β-Glucuronidase (1 mM inhibitor), 76% at β-Galactosidase and 0% at β-Mannosidase (1 mM inhibitor). Further, the “inhibition of α-mannosidases (in words)” value in the assay with α-mannosidases was “much more potent inhibitor than the piperidine analogues (1) and (2) of all the mannosidases investigated”. For the same compound, the “% Inhibition … α-Arabinosidase” value in the assay on α-Arabinosidase turned out to be 66%.
As for `OC[C@H]1NC[C@@H](O)[C@@H](O)[C@@H]1O` [DMJ (1), deoxymannojirimycin], in the assay on β-Glucosidase, the “% Inhibition … β-Glucosidase” value turned out to be 0%. The values for the inhibition at 1000 µM at β-Glucuronidase and at β-Mannosidase were 53% and 0%, respectively. Also, the “% Inhibition … α-Arabinosidase” value in the assay with α-Arabinosidase was 5%.

For the origin of these results see patent US5384417A, “Heptitols” (priority 1994, dated 1995).
